Patent publication US8912220B2 (priority 2009, dated 2014)

The molecules below were run against human 5-HT2C(VSV) (Homo sapiens, UniProt P28335, I156V/I160V/N158S) (assay: cell-based).
Sequence of human 5-HT2C(VSV) (P28335 33-458 I156V/N158S/I160V limits assumed): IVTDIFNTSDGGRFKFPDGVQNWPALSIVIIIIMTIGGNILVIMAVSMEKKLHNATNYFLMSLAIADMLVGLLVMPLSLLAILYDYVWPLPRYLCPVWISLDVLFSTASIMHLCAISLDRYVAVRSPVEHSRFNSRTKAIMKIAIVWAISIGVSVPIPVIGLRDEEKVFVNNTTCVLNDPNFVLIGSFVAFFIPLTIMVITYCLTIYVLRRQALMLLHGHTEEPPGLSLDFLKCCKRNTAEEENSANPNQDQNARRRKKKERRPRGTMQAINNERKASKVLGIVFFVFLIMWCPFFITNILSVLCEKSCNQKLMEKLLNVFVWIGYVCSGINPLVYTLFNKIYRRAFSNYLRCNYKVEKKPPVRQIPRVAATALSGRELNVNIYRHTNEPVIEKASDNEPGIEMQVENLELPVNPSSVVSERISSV
`CCn1cc(CCN2CCNCC2)c2c(O)cc(F)cc21` [11-15, 1-ethyl-6-fluoro-3-(2-(piperazin-1-yl)ethyl)-1H-indol-4-ol] gave an EC50 of 500 to 10000 nM.
`COc1cc(F)cc2c1c(CCN(C)C)cn2S(=O)(=O)c1ccccc1` [15-2, 2-(6-fluoro-4-methoxy-1-(phenylsulfonyl)-1H-indol-3-yl)-N,N-dimethylethan amine] showed an EC50 of 500 to 10000 nM.
Work on `COc1c(F)ccc2c1c(CCN1CCc3ccc(Cl)cc3C(C)C1)cn2C` (centres unmarked) [17-8, 8-chloro-3-(2-(5-fluoro-4-methoxy-1-methyl-1H-indol-3-yl)ethyl)-1-methyl-2,3,4,5-tetrahydro-1H-benzo[d]azepine] yielded an EC50 of 1 to 500 nM.
`COc1c(F)ccc2c1c(CCN1CCCC1C(N)=O)cn2C` (centres unmarked) [17-9, 1-(2-(5-fluoro-4-methoxy-1-methyl-1H-indol-3-yl)ethyl)pyrrolidine-2-carboxamide] was tested, and the EC50 was 500 to 10000 nM.
For `COc1c(F)ccc2c1c(CCN1CCNCC1)cn2C` [17-10, 5-fluoro-4-methoxy-1-methyl-3-(2-(piperazin-1-yl)ethyl)-1H-indole], the EC50 was 500 to 10000 nM.
`COc1c(F)ccc2c1c(CCNCCCCc1ccccc1)cn2C` [17-13, N-(2-(5-fluoro-4-methoxy-1-methyl-1H-indol-3-yl)ethyl)-4-phenylbutan-1-amine] was tested, and the EC50 was 1 to 500 nM.
`COc1c(F)ccc2c1c(CCN1CCN(c3ccccc3)CC1)cn2C` [17-14, 5-fluoro-4-methoxy-1-methyl-3-(2-(4-phenylpiperazin-1-yl)ethyl)-1H-indole] was tested, and the EC50 was 500 to 10000 nM.
Work on `COc1c(F)ccc2c1c(CCN1CCN(c3cccc(Cl)c3)CC1)cn2C` [17-15, 3-(2-(4-(3-chlorophenyl)piperazin-1-yl)ethyl)-5-fluoro-4-methoxy-1-methyl-1H-indole] yielded an EC50 of 1 to 500 nM.
With `COc1c(F)ccc2c1c(CCN[C@H]1CCCc3ccccc31)cn2C` [17-16, (S)-N-(2-(5-fluoro-4-methoxy-1-methyl-1H-indol-3-yl)ethyl)-1,2,3,4-tetrahydronaphthalen-1-amine] the EC50 was 1 to 500 nM.
Work on `COc1c(F)ccc2c1c(CCN[C@@H]1CCCc3ccccc31)cn2C` [17-17, (R)-N-(2-(5-fluoro-4-methoxy-1-methyl-1H-indol-3-yl)ethyl)-1,2,3,4-tetrahydronaphthalen-1-amine] yielded an EC50 of 1 to 500 nM.
`COc1c(F)ccc2c1c(CCNc1cccc(N3CCN(C)CC3)c1)cn2C` [17-18, N-(2-(5-fluoro-4-methoxy-1-methyl-1H-indol-3-yl)ethyl)-3-(4-methylpiperazin-1-yl)aniline] was tested, and the EC50 was 1 to 500 nM.
With `CCCn1cc(CCNCc2cccc(C)n2)c2c(O)c(F)ccc21` [17-19, 5-fluoro-3-(2-(((6-methylpyridin-2-yl)methyl)amino)ethyl)-1-propyl-1H-indol-4-ol] the EC50 was < 10000 nM.
`Cc1cccc(CNCCc2cn(C)c3ccc(F)c(O)c23)n1` [17-20, 5-fluoro-1-methyl-3-(2-(((6-methylpyridin-2-yl)methyl)amino)ethyl)-1H-indol-4-ol] was tested, and the EC50 was < 10000 nM.
For `CN(C)CCc1cn(C)c2ccc(F)c(OCCc3ccccc3)c12` [18-2, 2-(5-fluoro-1-methyl-4-phenethoxy-1H-indol-3-yl)-N,N-dimethylethanamine], the EC50 was 1 to 500 nM.
With `CCCn1cc(CCN)c2c(OCc3ccc(Cl)cc3)c(F)ccc21` [18-3, 2-(4-(4-chlorobenzyloxy)-5-fluoro-1-propyl-1H-indol-3-yl)ethanamine] the EC50 was < 10000 nM.
`NCCc1cn(CC2CCCCO2)c2ccc(F)c(O)c12` (centres unmarked) [19-3, 3-(2-Aminoethyl)-5-fluoro-1-((tetrahydro-2H-pyran-2-yl)methyl)-1H-indol-4-ol] showed an EC50 of 1 to 500 nM.
Molecule `NCCc1cn(CCOc2ccccc2)c2ccc(F)c(O)c12` [19-4, 3-(2-aminoethyl)-5-fluoro-1-(2-phenoxyethyl)-1H-indol-4-ol] has an EC50 of 1 to 500 nM.
For `NCCc1cn(CC2COc3ccccc3O2)c2ccc(F)c(O)c12` (centres unmarked) [19-5, 3-(2-aminoethyl)-1-((2,3-dihydrobenzo[b][1,4]dioxin-2-yl)methyl)-5-fluoro-1H-indol-4-ol], the EC50 was 1 to 500 nM.
In the case of `CCN(CC)C(=O)Cn1cc(CCN)c2c(O)c(F)ccc21` [19-6, 2-(3-(2-aminoethyl)-5-fluoro-4-hydroxy-1H-indol-1-yl)-N,N-diethylacetamide], the EC50 is reported as < 10000 nM.
For `NCCc1cn(CC(N)=O)c2ccc(F)c(O)c12` [19-7, 2-(3-(2-aminoethyl)-5-fluoro-4-hydroxy-1H-indol-1-yl)acetamide], the EC50 was < 10000 nM.
For `CCn1cc(CCNCc2ccccc2)c2c(OC)ccc(F)c21` [20-4, N-benzyl-2-(1-ethyl-7-fluoro-4-methoxy-1H-indol-3-yl)ethanamine], the EC50 was 1 to 500 nM.
With `CCn1cc(CCNCCc2ccccc2)c2c(OC)ccc(F)c21` [20-7, 2-(1-ethyl-7-fluoro-4-methoxy-1H-indol-3-yl)-N-phenethylethanamine] the EC50 was 1 to 500 nM.
With `CCn1cc(CCNC(C)c2ccccc2)c2c(OC)ccc(F)c21` (centres unmarked) [20-8, 2-(1-ethyl-7-fluoro-4-methoxy-1H-indol-3-yl)-N-(1-phenylethyl)ethanamine] the EC50 was 1 to 500 nM.
Work on `CCn1cc(CCNCc2ccccc2C)c2c(OC)ccc(F)c21` [20-9, 2-(1-ethyl-7-fluoro-4-methoxy-1H-indol-3-yl)-N-(2-methylbenzyl)ethanamine] yielded an EC50 of 1 to 500 nM.
`CCn1cc(CCNCc2ccccc2Cl)c2c(OC)ccc(F)c21` [20-10, N-(2-chlorobenzyl)-2-(1-ethyl-7-fluoro-4-methoxy-1H-indol-3-yl)ethanamine] was tested, and the EC50 was 1 to 500 nM.
`CNCCc1cn(C)c2c(F)cc(-c3ccccc3)c(OC)c12` [22-5, 2-(7-fluoro-4-methoxy-1-methyl-5-phenyl-1H-indol-3-yl)-N-methylethanamine] gave an EC50 of 1 to 500 nM.
For `CNCCc1cn(C)c2c(F)cc(CCc3ccccc3)c(OC)c12` [23-4, 2-(7-fluoro-4-methoxy-1-methyl-5-phenethyl-1H-indol-3-yl)-N-methylethanamine], the EC50 was 500 to 10000 nM.
For `CNCCc1cn(C)c2c(F)cc(CCC3CCCCC3)c(OC)c12` [23-5, 2-(5-(2-cyclohexylethyl)-7-fluoro-4-methoxy-1-methyl-1H-indol-3-yl)-N-methylethanamine], the EC50 was 1 to 500 nM.
For `CN(C)CCc1cn(Cc2ccco2)c2c(F)ccc(OCc3ccccc3)c12` [24-1, 2-(4-(benzyloxy)-7-fluoro-1-(furan-2-ylmethyl)-1H-indol-3-yl)-N,N-dimethylethanamine], the EC50 was 1 to 500 nM.
For `COc1ccc(S(=O)(=O)c2ccccc2)c2c1c(CCN(C)C)cn2C` [25-1, 2-(4-methoxy-1-methyl-7-(phenylsulfonyl)-1H-indol-3-yl)-N,N-dimethylethanamine], the EC50 was 1 to 500 nM.
`COC(=O)/C=C/c1ccc(OC)c2c(CCN(C)C)cn(C)c12` [25-2, (E)-methyl 3-(3-(2-(dimethylamino)ethyl)-4-methoxy-1-methyl-1H-indol-7-yl)acrylate] was tested, and the EC50 was 1 to 500 nM.
`COc1ccc(CCCO)c2c1c(CCN(C)C)cn2C` [25-4, 3-(3-(2-(dimethylamino)ethyl)-4-methoxy-1-methyl-1H-indol-7-yl)propan-1-ol] showed an EC50 of 500 to 10000 nM.
`CCn1cc(CCNCc2ccccc2)c2c(OCc3ccccc3)cc(F)cc21` [26-7, N-benzyl-2-(4-(benzyloxy)-1-ethyl-6-fluoro-1H-indol-3-yl)ethanamine] was tested, and the EC50 was 500 to 10000 nM.
In the case of `CCn1cc(CCNCc2ccccc2)c2c(O)cc(F)cc21` [26-8, 3-(2-(benzylamino)ethyl)-1-ethyl-6-fluoro-1H-indol-4-ol], the EC50 is reported as 1 to 500 nM.
`CCn1cc(CCNCCc2ccccc2)c2c(OCc3ccccc3)cc(F)cc21` [26-9, 2-(4-(benzyloxy)-1-ethyl-6-fluoro-1H-indol-3-yl)-N-phenethylethanamine] gave an EC50 of 500 to 10000 nM.
